Values quoted from earlier work as cited in article PMC9516332 (Frontiers in Oncology, 2022).
Where two headings read alike, the source gives them in different places.

Assays:
[1] = molecular target: panel of 255 wild-type kinases (Homo sapiens, UniProt O75582); details: cited from earlier work
[2] = molecular target: T1, panel of 255 wild-type kinases (Homo sapiens, UniProt P15735); details: kinase PHKG2, 1 µmol/L single concentration, cited from earlier work
T1 sequence (P15735 1-406): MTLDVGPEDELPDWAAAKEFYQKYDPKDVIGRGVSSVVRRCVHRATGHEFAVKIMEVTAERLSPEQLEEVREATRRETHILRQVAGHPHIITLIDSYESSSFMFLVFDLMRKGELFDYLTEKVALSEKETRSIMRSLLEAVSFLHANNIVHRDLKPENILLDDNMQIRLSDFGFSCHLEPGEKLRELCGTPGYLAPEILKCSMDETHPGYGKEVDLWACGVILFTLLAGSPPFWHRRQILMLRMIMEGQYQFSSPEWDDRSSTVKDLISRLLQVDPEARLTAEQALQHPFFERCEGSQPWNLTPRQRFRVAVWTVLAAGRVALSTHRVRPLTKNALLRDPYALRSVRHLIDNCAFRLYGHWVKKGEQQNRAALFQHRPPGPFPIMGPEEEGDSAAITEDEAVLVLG

[3] = molecular target: panel of 255 wild-type kinases (Homo sapiens, UniProt P24723); details: cited from earlier work
[4] = molecular target: panel of 255 wild-type kinases (Homo sapiens, UniProt P42684); details: ARG kinase assay, 1 µmol/L single concentration, cited from earlier work
[5] = molecular target: panel of 255 wild-type kinases (Homo sapiens, UniProt P51957); details: NEK4, 1 µmol/L single concentration, cited from earlier work
[6] = molecular target: panel of 255 wild-type kinases (Homo sapiens, UniProt Q02763); details: kinase TIE2, 1 µmol/L single concentration, cited from earlier work
[7] = molecular target: panel of 255 wild-type kinases (Homo sapiens, UniProt Q05397); details: kinase FAK, 1 µmol/L single concentration, cited from earlier work
[8] = molecular target: T2, panel of 255 wild-type kinases (Homo sapiens, UniProt Q8TF76); details: kinase Haspin, 1 µmol/L single concentration, cited from earlier work
T2 sequence (Q8TF76 1-798): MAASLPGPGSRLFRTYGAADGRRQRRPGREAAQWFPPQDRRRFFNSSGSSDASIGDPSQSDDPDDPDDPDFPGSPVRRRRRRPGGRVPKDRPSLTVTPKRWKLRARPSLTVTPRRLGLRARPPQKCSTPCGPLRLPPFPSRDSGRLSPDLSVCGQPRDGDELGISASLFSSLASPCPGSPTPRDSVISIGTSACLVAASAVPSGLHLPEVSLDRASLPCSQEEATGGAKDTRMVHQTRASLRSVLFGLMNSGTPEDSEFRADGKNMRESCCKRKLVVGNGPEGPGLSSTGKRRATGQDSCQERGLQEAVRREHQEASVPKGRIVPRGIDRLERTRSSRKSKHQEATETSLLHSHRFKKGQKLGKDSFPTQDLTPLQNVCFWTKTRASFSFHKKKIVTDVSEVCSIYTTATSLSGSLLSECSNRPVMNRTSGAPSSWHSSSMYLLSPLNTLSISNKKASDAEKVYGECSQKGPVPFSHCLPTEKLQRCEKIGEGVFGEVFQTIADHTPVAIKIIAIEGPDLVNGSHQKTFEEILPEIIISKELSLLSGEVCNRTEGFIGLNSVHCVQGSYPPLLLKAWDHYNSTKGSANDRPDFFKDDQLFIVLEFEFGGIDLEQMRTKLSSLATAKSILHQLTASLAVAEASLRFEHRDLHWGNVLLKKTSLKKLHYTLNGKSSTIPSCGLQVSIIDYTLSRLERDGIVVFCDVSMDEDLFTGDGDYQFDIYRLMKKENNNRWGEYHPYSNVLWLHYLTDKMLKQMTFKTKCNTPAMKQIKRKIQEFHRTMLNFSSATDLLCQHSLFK

[9] = molecular target: panel of 255 wild-type kinases (Homo sapiens, UniProt Q96RG2); details: PASK, 1 µmol/L single concentration, cited from earlier work
[10] = molecular target: panel of 255 wild-type kinases (Homo sapiens, UniProt Q9H2X6); details: kinase HIPK2, 1 µmol/L single concentration, cited from earlier work
[11] = molecular target: panel of 255 wild-type kinases (Homo sapiens, UniProt Q9NQU5); details: PAK6, 1 µmol/L single concentration, cited from earlier work
[12] = molecular target: panel of 255 wild-type kinases (Homo sapiens, UniProt Q9Y2H1); details: NDR2, 1 µmol/L single concentration, cited from earlier work
[13] = MSK1, 1 µmol/L single concentration, ref DOI: 10.1158/1535-7163.MCT-18-0877
[14] = ref DOI: 10.1158/1535-7163.MCT-18-0877
[15] = kinase PKCη, 1 µmol/L single concentration, ref DOI: 10.1158/1535-7163.MCT-18-0877
[16] = ref DOI: 10.1371/journal.pone.0092146

Row | Structure (SMILES) | %-inhibition, MSK1 [1, 13] [%] | %-inhibition at 1 µmol/L, PHKG2 [2, 14] [%] | %-inhibition at 1 µmol/L, PKCη [3, 15] [%] | %-inhibition ARG [4, 14] [%] | %-inhibition, NEK4 [5, 14] [%] | %-inhibition at 1 µmol/L, TIE2 [6, 14] [%] | %-inhibition at 1 µmol/L, FAK [7, 14] [%] | %-inhibition at 1 µmol/L, Haspin [8, 14] [%] | %-inhibition, PASK [9, 14] [%] | %-inhibition at 1 µmol/L, HIPK2 [10, 14] [%] | %-inhibition, PAK6 [11, 14] [%] | %-inhibition, NDR2 [12, 14] [%] | further results
1 | CC#CC(=O)N1CCC[C@H]1c1nc(-c2ccc(C(=O)Nc3ccccn3)cc2)c2c(N)nccn12 [acalabrutinib] | -8 | 0.00605 | -3.18 | 3.53 | -4.76 | -5.36 | -1.39 | 5.31 | -5.37 | -11 | -9 | -6.41 | –
2 | C=CC(=O)Nc1cc(Nc2nccc(-c3cn(C)c4ccccc34)n2)c(OC)cc1N(C)CCN(C)C [osimertinib] | -0.561 | 11 | 0.117 | 5.35 | 6 | 3.73 | 81 | 14 | 2.58 | 40 | 7 | 10 | –
3 | CO[C@@H]1[C@H](N(C)C(=O)c2ccccc2)C[C@H]2O[C@]1(C)n1c3ccccc3c3c4c(c5c6ccccc6n2c5c31)C(=O)NC4 [midostaurin] | 88 | 67 | – | 25 | 26 | 30 | 28 | 31 | 6 | 34 | 52 | 22 | %-inhibition at 1 µmol/L, PKCη [3]: 84%
4 | C=CC(=O)N1CCC[C@@H](n2nc(-c3ccc(Oc4ccccc4)cc3)c3c(N)ncnc32)C1 [ibrutinib] | -1.18 | 0.816 | 3.27 | 7 | 4.65 | 29 | 5 | 2.53 | -0.0437 | 2 | 9 | 3.47 | –
5 | C[C@@H](Oc1cc(-c2cnn(C3CCNCC3)c2)cnc1N)c1c(Cl)ccc(F)c1Cl [crizotinib] | – | – | – | – | – | – | – | – | – | – | – | – | %-inhibition, MSK1 [1]: -0.641%; %-inhibition at 1 µmol/L, PHKG2 [2, 16]: 10%; %-inhibition at 1 µmol/L, PKCη ([3]; kinase PKCη, 1 µmol/L single concentration, ref DOI: 10.1371/journal.pone.0092146): -8%; %-inhibition ARG [4, 16]: 80%; %-inhibition, NEK4 [5, 16]: 4.57%; %-inhibition at 1 µmol/L, TIE2 [6, 16]: 83%; %-inhibition at 1 µmol/L, FAK [7, 16]: 90%; %-inhibition at 1 µmol/L, Haspin [8, 16]: 7%; %-inhibition, PASK [9, 16]: 1%; %-inhibition at 1 µmol/L, HIPK2 [10, 16]: -6.53%; %-inhibition, PAK6 [11, 16]: 3%; %-inhibition, NDR2 [12, 16]: -4.76%
